Assay results from patent publication US20140322771A1, “Lipid Production” (THE UNIVERSITY OF QUEENSLAND, priority 2010, published 2014).
Entries after “also recorded” stand apart in the source; their conditions may differ.

Tests used:
[1] = test system: S. cerevisiae WT and sld mutant strains; assay: Formation of supersized lipid droplets (SLDs) in yeast, Nile red staining and fluorescence microscopy; type: cell-based, Saccharomyces cerevisiae
Procedure: To screen for yeast mutants that generate supersized LDs, cells were cultured in synthetic complete media (0.67% yeast nitrogen base, 2% dextrose, and amino acids) in 96-well plates at 30° C. till stationary phase. For TetO7-regulated strains, 15 μg/ml doxycycline was added to repress specific genes. Cells were stained with 20 μg/ml Nile red for LDs and observed by fluorescence microscopy. Yeast strains found to contain SLDs were recultured in synthetic complete media with aeration in 10 ml culture tubes to confirm the phenotype. These strains were also grown in YPD media (1% yeast extract, 2% peptone, and 2% dextrose) to examine the morphology of LDs.
For phospholipid precursor treatment, synthetic complete medium was supplemented with 1 mM choline, 1 mM ethanolamine, or 75 μM inositol.
Fluorescent imaging was performed under a Leica CTR5500 microscope (Wetzlar, Germany) with an EL6000 fluorescent lamp. Images were taken with a DFC300 FX digital camera and a Leica LAS AF software. Yeast cells were viewed under a ×100/1.30 oil immersion objective lens. A 450-490-nm bandpass excitation filter, a 510 dichromatic mirror, and a 515-nm longpass emission filter (Leica filter cube I3) were chosen to observe Nile red-stained LDs. For statistical presentation of the percentage of cells containing supersized LDs, 200 cells were observed and percentage was calculated. The experiments were done in triplicates and the result was shown as mean±SD. Mammalian LDs were stained with Bodipy 493/503 (Invitrogen) and observed with a 470/40-nm bandpass excitation filter, a 500-nm dichromatic mirror, and a 525/50-nm bandpass emission filter (Leica filter cube GFP).

[2] = test system: lipid droplets of S. cerevisiae mutant strains; assay: Lipidomic analysis of lipid droplets isolated from yeast (PE/PL and PL/TAG ratio); type: cell-based, Saccharomyces cerevisiae
Procedure: Lipid droplets were isolated as described in Fei et al. (Fei et al., (2008), “Fld1p, a functional homologue of human seipin, regulates the size of lipid droplets in yeast”, J Cell Biol 180: 473-482).
Lipids were extracted from zymolase-digested lyophilized yeast cells, isolated ER microsomes or lipid droplets. Briefly 900 μl ice-clod chlorofom:methanol (1:2) was added to samples. Mixtures were vigorously vortexed for 1 min, and incubated for 2 h in vacuum container with rotary shaking at 4° C. Then 400 μl ice-cold water and 300 μl chloroform were added, vortexed and incubated on ice for 1 min. After centrifugation at 12000 rpm for 3 min at 4° C., the lower organic phase was collected. Subsequently, 50 μl 1 M HCl and 500 μl chloroform were added to the remainder, vortexed, and incubated on ice for 3 min. The lower organic phase was also collected after centrifugation at 12000 rpm for 3 min at 4° C., and combined with the first extract. The extracted lipids were blown dry with nitrogen gas, and resuspended in solvent for mass spectrometry analysis.
Lipidomic analysis, and quantitative measurement of neutral lipids via thin layer chromatography (TLC) were performed as described in Fei et al. (Fei et al., (2008), “Fld1p, a functional homologue of human seipin, regulates the size of lipid droplets in yeast”, J Cell Biol 180: 473-482) and Low et al. (Low et al., (2008), “Caspase-dependent and -independent lipotoxic cell-death pathways in fission yeast”, J Cell Sci 121: 2671-2684). TLC plates were developed in chloroform/methanol/water (65:25:4) to separate phospholipid species.

[3] = test system: Chlamydomonas homologue of CDS1p (gene C—30067); assay: Lipid droplet accumulation in Chlamydomonas after RNAi knockdown of the CDS1p homologue (Nile red); type: cell-based; settings: C. reinhardtii 21 gr transformed with hairpin RNAi construct, compared with wild type
Procedure: A hairpin RNAi construct was made by using 1st-3rd exon of the Chlamydomonas homologue of CDS1p driven by LC8 promoter. The gene name of the homologue is C—30067. The LC8 promoter is from Chlamydomonas.
This construct was transformed into Chlamydomonas using a glass-bead method. The selection marker for transformation was APHVIII, whose expression conferred resistant to paromomysin.
The survival strains on agar plates were screened by using Nile Red staining. 1 ug/ml final concentration of Nile red was used.
A Zeiss fluorescence microscope (Observer.Z1) with GFP filter was used for screening putative RNAi strains.

## NCCO [ethanolamine]
[1]; most of the mutants, SC media supplemented with 1 mM ethanolamine
  SLD formation: enhanced SLD formation in most of the mutants
[2]; fld1Δ and cds1 cells, SC medium with ethanolamine
  proportion of PE on lipid droplets: significantly increased
[2]; ino4Δ cells, SC medium with ethanolamine
  PE to PL ratio of LDs: moderately increased

## O[C@H]1[C@H](O)[C@@H](O)[C@H](O)[C@@H](O)[C@H]1O [inositol]
[1]; all sld mutants, SC media supplemented with 75 μM inositol
  SLD formation: reduced the SLD formation in all mutants; also recorded: significant reduction of SLD formation
[1]; ino4Δ cells, inositol addition, higher PE to PL ratio persisted
  biogenesis of supersized LDs: completely abolished the biogenesis of supersized LDs
[2]; cds1 or ino4Δ mutant, inositol supplementation
  phospholipid to TAG ratio of LDs: did not increase

## CCCCCCCC/C=C\CCCCCCCC(=O)O [oleate]
[1]; pah1Δ cells, supplement 1 mM each (about 3% of cells without supplement)
  number of cells producing SLD: no effect

B1: CDS1 gene RNAi: hairpin RNAi construct of exons 1-3 of the Chlamydomonas CDS1p homologue (C—30067, SEQ ID NO: 41), LC8 promoter (nucleic acid)
DNA: ATGCGACCAAAACAACAAGCTCAGGTCACCGCCGCGGAGGACACCGCGTCGGAGCCGGAGCCGGAGCCCAAGCCCGTGGATCGAAAGTCGAGGCTCAGGTCCTTCCGCGTACGCACCATCTCCTCGGTCTTGCTCATCGGCGGGTTCATCGGCATCATTTGGGCGGGTCATGTGCCGCTTATGTTCTTCATCCTGCTACTCCAGTTCCTGGTGGCCCGGGAGCTCTTCCGCATCGCCTACATAGCGGAGAAGTCCAAACGCAGCC
modifications: LC8 promoter; Hairpin RNAi construct targetting Chlamydomonas sp. CDS1p Homologue
[3]
  lipid droplet accumulation: accumulated lipid droplet drastically
